# Results as given in patent publication US8440610B2, “Mapkap kinase-2 as a specific target for blocking proliferation of P53-defective cells” (Massachusetts Institute of Technology, priority 2004, dated 2013).
# B1: wild-type p47phox: GST-tagged full-length p47phox protein, cytosolic component of NADPH oxidase, used as p38 SAPK substrate (protein)
# chain: MGDTFIRHIALLGFEKRFVPSQHYVYMFLVKWQDLSEKVVYRRFTEIYEFHKTLKEMFPIEAGAINPENRIIPHLPAPKWFDGQRAAENRQGTLTEYCSTLMSLPTKISRCPHLLDFFKVRPDDLKLPTDNQTKKPETYLMPKDGKSTATDITGPIILQTYRAIANYEKTSGSEMALSTGDVVEVVEKSESGWWFCQMKAKRGWIPASFLEPLDSPDETEDPEPNYAGEPYVAIKAYTAVEGDEVSLLEGEAVEVIHKLLDGWWVIRKDDVTGYFPSMYLQKSGQDVSQAQRQIKRGAPPRRSSIRNAHSIHQRSRKRLSQDAYRRNSVRFLQQRRRQARPGPQSPGSPLEEERQTQRSKPQPAVPPRPSADLILNRCSESTKRKLASAV
# modifications: left off: a dimerising Fc or GST
# notes: GST-tagged full-length p47phox protein, cytosolic component of NADPH oxidase, used as p38 SAPK substrate
# How the values were obtained:
# p38 MAPK/MK2 pathway = test: Immunoblot of p38 MAPK/MK2 activation after DNA-damaging drugs in U2OS cells; format: cell-based, human
# Procedure: (§1) 14-3-3 pull-down assays, immunoblotting, and immunofluorescence. U2OS cells were lysed in lysis buffer: 50 mM Tris/HCl, pH7.8, 150 mM NaCl, 1.0% NP-40, 5 mM EDTA, 2 mM DTT, 8 μg/ml pepstatin, 8 μg/ml aprotinin, 8 μg/ml leupeptin, 2 mM Na3VO4, 10 mM NaF, 1 μM microcystin for twenty minutes at 4° C. Clarified lysates (0.5-2 mg protein) were incubated with 20 μL glutathione beads or amylose beads containing 10-20 μg 14-3-3-GST or 14-3-3-MBP, respectively, for 120 minutes at 4° C. Following washing, lysates and bead-bound proteins were analysed by SDS-PAGE, followed by transfer to PVDF membranes and immunoblotted with the indicated antibodies. For immunofluorescence experiments, U2OS cells were seeded onto 18 mm^2 coverslips, irradiated or mock-treated, fixed, extracted, and immunostained as described previously (Clapperton et al., Nat. Struct. Mol. Biol., 11:512-518, 2004).
# [1] = test system: mouse embryonic fibroblasts (MEFs); test: Colony survival assay in p53 wild-type and p53−/− MEFs; format: cell-based; conditions: MEFs that lacked p53; not seen in p53 wild-type MEFs
# Procedure: FIGS. 29A-29B are graphs showing the results of a colony survival assay in which mouse embryonic fibroblasts (MEFs) were treated with increasing doses of doxorubicin or cisplatin for eight hours, rinsed twice with PBS and once with media, and re-plated at an initial density of 5,000 cells/10 cm^2 dish. After eleven days, the number of colonies on the plate was counted and normalized to the number of colonies formed by the same cell type in the absence of treatment with chemotherapeutic drugs. RNA interference using short hairpin RNAs was used with both the p53 wild-type MEFs and the p53^−/− MEFs to knock down the levels of MAPKAP kinase-2 (MK2 shRNA). Short hairpin RNAs against luciferase (luciferase shRNA) were used as a control. […] FIG. 29C is a series of Western blots using the indicated antibodies. These blots verify that p53 polypeptide, and the known p53-responsive gene product p21, is induced by DNA damage only in the p53 wild-type cells (lanes 2, 3, 5, and 6), but not in the p53^−/− cells (lanes 7-12). […]
# The p53 tumor suppressor protein plays an important role in the cellular response to DNA damage by transcriptionally upregulating the Cdk inhibitor p21 to induce a G1 and G2 arrest. […] Cells were infected with lentiviruses delivering shRNAs against luciferase (control) or MK2 and analyzed 6 days later (FIG. 29C). […] Only minimal amounts of the p53 inducer protein p19ARF were detected. […]
# Chk2 = Chk2 (Homo sapiens, UniProt O96017); conditions: Chk1 versus Chk2; cited from earlier work
# MAPKAP kinase-2 [2] = target: T1, MAPKAP kinase-2 (Homo sapiens, UniProt P49137); test: Phosphorylation of hsp-27 on Ser-82 after heat shock in U2OS cells (immunoblot); format: cell-based; set-up: endogenous in cells; host or cells: U2OS cells; conditions: control luciferase shRNA U2OS cells, 42° C. for two hours, 250 nM UCN-01
# Procedure: as §1
# Activation of MK2 by cisplatin, camptothecin, and doxorubicin is strikingly similar to the activation profile reported for Chk1. […] U2OS cells depleted of Chk1 using siRNA were exposed to cisplatin and doxorubicin, and analyzed for activation of MK2. […] The IC50 value we measured for Chk1 is in good agreement with previously published data. […]
# [3] = test system: Cdc25C Ser-216 phosphorylation; conditions: Chk1-depleted cells, low doses of UCN-01 (~300 nM); cited from earlier work
# U2OS cells = test: FACS cell cycle analysis (PI, phospho-histone H3) in U2OS cells; format: cell-based, human; conditions: untreated U2OS cells blocked in mitosis with nocodazole (100 nM, eighteen hours)
# Procedure: Asynchronous MAPKAP kinase-2 or luciferase shRNA knockdown cells were mock treated or exposed to doxorubicin for thirty hours, and cell cycle progression was monitored by FACS. In one set of experiments, the spindle poison nocodazole was added to the media three hours after addition of doxorubicin, to cause any cells progressing through the cell cycle to arrest in mitosis. DNA content was monitored by PI staining; phospho-histone-H3 staining was used as an indicator of mitotic entry. As shown in the left panels of FIG. 14A, treatment of control luciferase shRNA knockdown cells with doxorubicin led to the accumulation of cells with 4N DNA content, and a lack of phospho-histone-H3 staining in either the absence or presence of nocodazole. The cells expressing the luciferase shRNAs behaved identically to the untransfected doxorubicin-treated control U2OS cell population (FIG. 24B), with the prominent 4N DNA component and the absence of phospho-histone-H3 staining indicative of an intact G2/M checkpoint.
# In contrast to the G2/M checkpoint response observed in doxorubicin-treated cells, treatment with the DNA intra-strand cross-linker cisplatin caused U2OS cells to predominantly accumulate in the G1 and S phases of the cell cycle over the subsequent thirty hours (FIG. 24C). RNA interference was used to investigate the role of MAPKAP kinase-2 in this process. […] Strikingly, when nocodazole was added three hours following cisplatin addition, the MAPKAP kinase-2 depleted cells accumulated in a 4N DNA containing peak with ˜42% of the cells staining strongly for phospho-histone H3. Identical results were obtained in cells treated with a second unrelated siRNA sequence against MAPKAP kinase-2.
# FACS analysis. UV irradiation was performed at 254 nm (UV-C) using a Stratalinker 2400 (Stratagene). U2OS cells were fixed in 70% ethanol overnight at −20° C., permeabilized with PBS containing 0.2% Triton X-100 for twenty minutes at 4° C., blocked with 2% FBS in PBS, and incubated with 1 μg of anti-phospho-histone H3 per 10^6 cells for sixty minutes on ice. […]
# MAPKAP kinase-2 [4] = target: T1, MAPKAP kinase-2; test: Kinetics of in vitro phosphorylation of MK2tides by MAPKAP kinase-2; format: biochemical; set-up: purchased Upstate; conditions: peptide as substrate of MAPKAP kinase-2
# Excerpt: To verify the peptide library screening results, individual peptides (MK2tides) containing the optimal MAPKAP kinase-2 consensus motif LQRQLSI (SEQ ID NO: 16), or mutant versions with Ala substituted at each position in the motif, were synthesized and used for kinetic analysis (FIGS. 3B and 3C). […] The rank order of importance of key residues is Arg-3>Leu-5≈Ile+1>[…]. The optimal MK2tide had neither the lowest Km nor the highest Vmax, but rather had the highest Vmax/Km ratio, consistent with the fact that the peptide library screening approach selects substrates on the basis of optimal Vmax/Km, rather than low Km or high Vmax alone. […]
# (§2) The sequences of the p38 optimal peptide and the p47phox peptide were KKAZGPQGPQSPIE (SEQ ID NO: 22) and KKAZGPQSPGSPLE (SEQ ID NO: 23), respectively. For 14-3-3 pulldowns of Cdc25B following in vitro phosphorylation by p38 or MAPKAP kinase-2, 2.0 μg of Cdc25B was incubated with 10-fold excess 14-3-3-MBP and analyzed by autoradiography. […] Samples were analyzed by SDS-PAGE followed by transfer to nitrocellulose for autoradiography and immunoblotting. The rate of p38α phosphorylation of isolated peptides and full-length p47phox proteins was determined by scintillation counting using peptide concentrations of 100, 400, and 1400 μM, and protein concentrations of 1, 5, 10 and 15 μM, with time points taken at five, ten, and twenty minutes. […]
# p38α SAPK = p38α SAPK (Homo sapiens, UniProt Q16539); test: Kinetics of in vitro substrate phosphorylation by p38α SAPK; format: biochemical; conditions: GST-tagged full-length protein as substrate
# Excerpt: Wild-type and mutant versions of GST-tagged full-length p47phox protein, rather than isolated peptides, were then used as substrates for in vitro phosphorylation reactions. The wild-type full-length p47phox protein was rapidly phosphorylated by p38α SAPK (FIGS. 1C and 1D). […] Simultaneous mutation of both Ser345 and Ser348 to Ala eliminated phosphorylation of p47phox by p38 SAPK altogether.
# as §2, with “autoradiography. For kinetic measurements, the reactions were terminated by the addition of an equal volume of 0.5 percent phosphoric acid, and 5 μl was spotted onto p81 paper.” for “autoradiography.”
# T1 sequence (P49137 whole entry): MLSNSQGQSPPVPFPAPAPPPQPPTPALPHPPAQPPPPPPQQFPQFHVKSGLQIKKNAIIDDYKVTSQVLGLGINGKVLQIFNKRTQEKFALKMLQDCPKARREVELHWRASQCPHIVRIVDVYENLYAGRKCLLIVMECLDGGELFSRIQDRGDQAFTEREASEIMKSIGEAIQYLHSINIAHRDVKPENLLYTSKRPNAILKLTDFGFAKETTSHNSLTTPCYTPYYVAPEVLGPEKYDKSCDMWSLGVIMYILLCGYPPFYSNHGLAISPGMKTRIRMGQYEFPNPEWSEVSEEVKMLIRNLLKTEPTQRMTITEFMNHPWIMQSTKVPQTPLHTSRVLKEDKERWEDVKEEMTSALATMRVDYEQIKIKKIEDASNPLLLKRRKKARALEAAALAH
# p38α SAPK, sequence (Q16539 whole entry): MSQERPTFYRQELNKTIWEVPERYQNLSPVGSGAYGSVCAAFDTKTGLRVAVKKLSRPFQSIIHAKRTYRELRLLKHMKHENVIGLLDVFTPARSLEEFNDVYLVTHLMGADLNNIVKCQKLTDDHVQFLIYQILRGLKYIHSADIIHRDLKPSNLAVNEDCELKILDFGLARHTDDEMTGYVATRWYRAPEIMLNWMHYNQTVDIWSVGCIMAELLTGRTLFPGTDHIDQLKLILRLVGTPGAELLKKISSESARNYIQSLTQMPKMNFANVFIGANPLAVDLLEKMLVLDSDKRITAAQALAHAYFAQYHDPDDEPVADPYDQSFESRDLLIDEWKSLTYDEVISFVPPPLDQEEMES
# Chk2, sequence (O96017 whole entry, species assumed): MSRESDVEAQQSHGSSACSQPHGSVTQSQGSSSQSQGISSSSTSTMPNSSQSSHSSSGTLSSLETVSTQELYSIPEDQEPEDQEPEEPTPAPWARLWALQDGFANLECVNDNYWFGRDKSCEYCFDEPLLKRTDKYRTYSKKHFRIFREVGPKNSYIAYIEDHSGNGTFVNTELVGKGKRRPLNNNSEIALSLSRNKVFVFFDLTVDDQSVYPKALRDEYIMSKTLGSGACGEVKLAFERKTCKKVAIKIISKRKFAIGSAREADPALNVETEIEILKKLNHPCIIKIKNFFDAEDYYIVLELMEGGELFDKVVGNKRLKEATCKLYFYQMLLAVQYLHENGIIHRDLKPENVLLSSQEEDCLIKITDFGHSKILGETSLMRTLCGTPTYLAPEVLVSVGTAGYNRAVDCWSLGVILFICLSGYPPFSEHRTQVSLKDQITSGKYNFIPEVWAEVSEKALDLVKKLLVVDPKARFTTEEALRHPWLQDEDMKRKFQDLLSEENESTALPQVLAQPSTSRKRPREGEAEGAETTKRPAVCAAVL
molecule,measurement,setting,value
CC[C@@]1(O)C(=O)OCc2c1cc1n(c2=O)Cc2cc3ccccc3nc2-1 [camptothecin],"time to MK2 activation (reduction in electrophoretic mobility, pThr-344)","p38 MAPK/MK2 pathway; U2OS cells, 10 μM drug",within four hour
MK2 shRNA: lentivirally delivered short hairpin RNA against murine MAPKAP kinase-2 (SEQ ID NO: 26) (TCGATGCGTGTTGACTATGATTCAAGAGATCATAGTCAACACGCATCGTTTTTTC),sensitivity to doxorubicin and cisplatin (colony survival),[1],increased sensitivity
"CN[C@@H]1C[C@H]2O[C@@](C)([C@@H]1OC)n1c3ccccc3c3c4c(c5c6ccccc6n2c5c31)C(=O)N[C@H]4O [UCN-01, 7-hydroxystaurosporin]",IC50 for Chk1 lower than that for Chk2,Chk2,~1000 fold
same,phosphorylation of hsp-27 on Ser-82,MAPKAP kinase-2 [2],completely abrogated
same,phosphorylation of Cdc25C on Ser-216,[3],lost
COC(=O)Nc1nc2ccc(C(=O)c3cccs3)cc2[nH]1 [nocodazole],cells staining for phospho-histone H3,U2OS cells,42%
MK2tide: peptide containing the optimal MAPKAP kinase-2 consensus motif LQRQLSI (SEQ ID NO: 16),Km value relative to the best MAPKAP kinase-2 peptide substrate known to date (HSP27-derived sequence),MAPKAP kinase-2 [4],two-fold lower
C[S+]([O-])c1ccc(-c2nc(-c3ccncc3)c(-c3ccc(F)cc3)[nH]2)cc1 (stereo not shown) [SB203580],MK2 activation by DNA damaging agents,p38 MAPK/MK2 pathway,completely abolished MK2 activation
B1,Vmax for p38 SAPK phosphorylation,p38α SAPK,36.6 nmol/min/µg
same,Km,p38α SAPK; read-out: Km for p38 SAPK phosphorylation,6 µM
